The target of assay [1] is unphosphorylated PDGFRβ kinase (uPDGFRβ, Seq. ID No. 3) (Homo sapiens, UniProt P09619). In words: biochemical. The following applies: uPDGFRb, enzymatic assay, ATP 500 μM.
Assay [2] concerns the target T1, unphosphorylated c-FMS kinase (uFMS, Seq. ID no. 1) (Homo sapiens, UniProt P07333).
T1 sequence (P07333 538-972): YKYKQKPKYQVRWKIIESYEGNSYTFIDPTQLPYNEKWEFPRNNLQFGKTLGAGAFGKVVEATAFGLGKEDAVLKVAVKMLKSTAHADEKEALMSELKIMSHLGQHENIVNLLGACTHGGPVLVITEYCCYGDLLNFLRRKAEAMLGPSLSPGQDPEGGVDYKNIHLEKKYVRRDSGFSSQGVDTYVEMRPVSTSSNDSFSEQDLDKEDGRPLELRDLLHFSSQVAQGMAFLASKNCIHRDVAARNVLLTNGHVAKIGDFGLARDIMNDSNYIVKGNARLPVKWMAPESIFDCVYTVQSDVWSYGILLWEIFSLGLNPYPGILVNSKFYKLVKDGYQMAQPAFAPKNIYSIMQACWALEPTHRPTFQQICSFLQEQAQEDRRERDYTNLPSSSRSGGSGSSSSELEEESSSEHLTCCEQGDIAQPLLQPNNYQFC
In words: biochemical. The following applies: uFMS, enzymatic assay, ATP 500 μM.

In the next assay the test system is osteoclast precursors. The assay can be described thus: cells. The assay is classed as cell-based. The following applies: read-out: Osteoclast assay. Here is the method: Osteoclast Tartrate-Resistant Acid Phosphatase Assay
Diluted compound was transferred to a 384-well black clear bottom plate. Two-thousand five hundred osteoclast precursors (Lonza, Walkersville, Md.) were added per well in growth media containing Receptor Activator of Nuclear Factor Kappa-beta ligand (RANKL) and M-CSF (R&D Systems, Minneapolis, Minn.). […] Tartrate-resistant acid phosphatase activity in the supernatant samples was determined using an acid phosphatase assay kit (Sigma, St. Louis, Mo.). Absorbance was measured at 550 nm using a plate reader. Data was analyzed using Prism software (Graphpad, San Diego, Calif.) to calculate IC50 values.

Another assay deals with M-NFS-60 cells. In words: cells. The following applies: 67 h, read-out: M-NFS-60 cell proliferation.
The target in assay [3] is unphosphorylated c-KIT kinase (uKIT, Seq. ID no. 2) (Homo sapiens, UniProt P10721). In words: biochemical. As to conditions: uKIT, enzymatic assay, ATP 2000 μM.
Chain of unphosphorylated c-KIT kinase (uKIT, Seq. ID no. 2) (P10721 with tags, fused parts or gaps): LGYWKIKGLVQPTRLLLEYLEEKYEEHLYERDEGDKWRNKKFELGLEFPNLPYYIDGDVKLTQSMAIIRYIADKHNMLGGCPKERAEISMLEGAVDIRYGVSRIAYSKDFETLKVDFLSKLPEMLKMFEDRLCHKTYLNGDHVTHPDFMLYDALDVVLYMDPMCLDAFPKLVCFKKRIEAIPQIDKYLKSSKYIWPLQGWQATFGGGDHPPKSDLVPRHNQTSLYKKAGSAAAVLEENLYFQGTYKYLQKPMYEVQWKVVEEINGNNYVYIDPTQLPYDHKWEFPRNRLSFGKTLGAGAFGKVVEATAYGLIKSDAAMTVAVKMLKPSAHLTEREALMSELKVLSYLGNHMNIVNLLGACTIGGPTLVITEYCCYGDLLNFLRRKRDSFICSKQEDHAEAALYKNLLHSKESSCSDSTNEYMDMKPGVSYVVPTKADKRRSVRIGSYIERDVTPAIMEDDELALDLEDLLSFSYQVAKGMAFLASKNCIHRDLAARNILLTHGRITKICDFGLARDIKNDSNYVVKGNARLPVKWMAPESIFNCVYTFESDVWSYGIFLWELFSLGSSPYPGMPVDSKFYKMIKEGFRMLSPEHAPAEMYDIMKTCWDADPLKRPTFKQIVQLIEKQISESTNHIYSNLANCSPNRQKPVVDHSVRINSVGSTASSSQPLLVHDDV
Procedure: uKit kinase (Seq. ID No. 2) Assay
In this assay, the oxidation of NADH (thus the decrease at A340 nm) was continuously monitored spectrophometrically. […] The inhibition reaction was started by mixing serial diluted test compound with the above reaction mixture. The absorption at 340 nm was monitored continuously for 4 hours at 30° C. on Synergy 2 plate reader (BioTech).

Consider nine compounds from patent US9382228B2 (priority 2013, dated 2016).

Chain of unphosphorylated PDGFRβ kinase (uPDGFRβ, Seq. ID No. 3) (P09619 557-1106): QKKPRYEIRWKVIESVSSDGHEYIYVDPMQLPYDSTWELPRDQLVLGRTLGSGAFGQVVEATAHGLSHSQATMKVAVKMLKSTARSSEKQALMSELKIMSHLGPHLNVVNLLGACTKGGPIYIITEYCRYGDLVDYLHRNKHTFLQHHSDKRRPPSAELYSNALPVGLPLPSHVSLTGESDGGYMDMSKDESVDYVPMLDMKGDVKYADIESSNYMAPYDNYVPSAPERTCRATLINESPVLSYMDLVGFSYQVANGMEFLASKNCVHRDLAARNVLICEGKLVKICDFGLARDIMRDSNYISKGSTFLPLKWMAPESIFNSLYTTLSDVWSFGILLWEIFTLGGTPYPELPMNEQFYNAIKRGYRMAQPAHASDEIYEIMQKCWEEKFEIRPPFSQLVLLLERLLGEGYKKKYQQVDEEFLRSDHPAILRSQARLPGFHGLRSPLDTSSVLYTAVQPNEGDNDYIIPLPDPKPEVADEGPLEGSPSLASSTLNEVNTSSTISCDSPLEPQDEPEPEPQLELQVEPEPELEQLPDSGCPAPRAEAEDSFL
Procedure for M-NFS-60 cells: M-NFS-6 Cell Proliferation Assay
A serial dilution of test compound was dispensed into a 384-well black clear bottom plate (Corning, Corning, N.Y.). Two thousand five hundred cells were added per well in 50 μL complete growth medium. […] IC50 values were calculated from a series of percent inhibition values determined at a range of inhibitor concentrations using software routines as implemented in the GraphPad Prism software package.

`Cc1ccc(-c2cc(Oc3ccc(NC(=O)NC(=O)C4CCCC4)nc3C)ccn2)cn1` [Example 100, N-((6-methyl-5-((6′-methyl-[2,3′-bipyridin]-4-yl)oxy)pyridin-2-yl)carbamoyl)cyclopentanecarboxamide]: the IC50 in assay [1] was over 1000 nM; in assay [2] it was under 10 nM; with osteoclast precursors it was under 10 nM; with M-NFS-60 cells it was 10 to 100 nM; in assay [3] it was 10 to 100 nM.
For `COC1(C(=O)NC(=O)Nc2ccc(Oc3ccnc(-c4cc(C)no4)c3)c(C)n2)CCCC1` [Example 166, 1-methoxy-N-((6-methyl-5-((2-(3-methylisoxazol-5-yl)pyridin-4-yl)oxy)pyridin-2-yl)carbamoyl)cyclopentanecarboxamide], the IC50 in assay [1] was 100 to 1000 nM; in assay [2] it was under 10 nM; in the assay with osteoclast precursors, 10 to 100 nM; with M-NFS-60 cells it was 10 to 100 nM; in assay [3], 100 to 1000 nM.
Turning to `Cc1nc(NC(=O)NC(=O)C(C)(C)C)ccc1Oc1ccnc(-c2ccc(C3CCN(C)CC3)cc2)c1` [Example 109, N-((6-methyl-5-((2-(4-(1-methylpiperidin-4-yl)phenyl)pyridin-4-yl)oxy)pyridin-2-yl)carbamoyl)pivalamide], the IC50 is 100 to 1000 nM in assay [1]; under 10 nM in assay [2]; 10 to 100 nM in the assay on osteoclast precursors; under 10 nM with M-NFS-60 cells; 100 to 1000 nM in assay [3].
Regarding `Cn1cc(-c2cc(Oc3ccc(NC(=O)NC(=O)C4CCCC4)nc3)ccn2)cn1` [Example 65, N-((5-((2-(1-methyl-1H-pyrazol-4-yl)pyridin-4-yl)oxy)pyridin-2-yl)carbamoyl)cyclopentanecarboxamide], the IC50 in assay [1] was 100 to 1000 nM; in assay [2], under 10 nM; in the assay on osteoclast precursors, under 10 nM; with M-NFS-60 cells, under 10 nM; in assay [3], under 10 nM.
`CCC(C)(C)C(=O)NC(=O)Nc1ccc(Oc2ccnc(-c3cnn(C)c3)c2)cn1` [Example 63, 2,2-dimethyl-N-((5-((2-(1-methyl-1H-pyrazol-4-yl)pyridin-4-yl)oxy)pyridin-2-yl)carbamoyl)butanamide]: the IC50 was 100 to 1000 nM in assay [1]; under 10 nM in assay [2]; under 10 nM in the assay with osteoclast precursors; under 10 nM in the assay with M-NFS-60 cells; 100 to 1000 nM in assay [3].
As for `Cn1cc(-c2cc(Oc3ccc(NC(=O)NC(=O)CC4CC5CCC4C5)nc3)ccn2)cn1` (stereo not drawn) [Example 62, 2-(bicyclo[2.2.1]heptan-2-yl)-N-((5-((2-(1-methyl-1H-pyrazol-4-yl)pyridin-4-yl)oxy)pyridin-2-yl)carbamoyl)acetamide], the IC50 (in assay [1]; in assay [2]; in the assay with osteoclast precursors; in the assay with M-NFS-60 cells; in assay [3]) was under 10 nM throughout.
Take `CC(C)(C)C(=O)NC(=O)Nc1ccc(Oc2ccnc(-c3ccnc(C(F)(F)F)c3)c2)cn1` [Example 95, N-((5-((2′-(trifluoromethyl)-[2,4′-bipyridin]-4-yl)oxy)pyridin-2-yl)carbamoyl)pivalamide]: the IC50 in assay [1] is over 1000 nM; in assay [2], 10 to 100 nM; with osteoclast precursors, 10 to 100 nM; in the assay with M-NFS-60 cells, 100 to 1000 nM; in assay [3] it was over 1000 nM.
`Cc1cn(-c2cc(Oc3ccc(NC(=O)NC(=O)C4(C)CCOCC4)nc3)ccn2)cn1` [Example 157, 4-methyl-N-((5-((2-(4-methyl-1H-imidazol-1-yl)pyridin-4-yl)oxy)pyridin-2-yl)carbamoyl)tetrahydro-2H-pyran-4-carboxamide]: the IC50 lay in the range of 100 to 1000 nM in assay [1]; 10 to 100 nM in assay [2]; 10 to 100 nM in the assay with osteoclast precursors; 100 to 1000 nM in the assay on M-NFS-60 cells; 100 to 1000 nM in assay [3].
For the compound `CC(C)(C)C(=O)NC(=O)Nc1ccc(Oc2ccnc(-c3ccc(C(F)(F)F)nc3)c2)cn1` [Example 94, N-((5-((6′-(trifluoromethyl)-[2,3′-bipyridin]-4-yl)oxy)pyridin-2-yl)carbamoyl)pivalamide], the IC50 in assay [1] is over 1000 nM; in assay [2], under 10 nM; in the assay on osteoclast precursors, 10 to 100 nM; in the assay with M-NFS-60 cells, 10 to 100 nM; in assay [3] it was over 1000 nM.
